System: antibody R674
Experiment: RIA: displacement of tritium labeled Compound A' or B' from polyclonal rabbit antiserum R674
Assay type: binding, New Zealand white rabbits
Details: up to 10 μM (the highest concentration tested)
Protocol: Antibodies for the reactivation product of formula II were produced by the methods described in Basic methodology of Vituakaitis, Meth. Enzymol. 73: 46-52 (1981). Specifically, New Zealand white rabbits were immunized with Compound C (the para succinyl aminomethyl derivative of compound B'), coupled to thyroglobulin. See Scheme 3. The initial immunizations employed 1 mg of the immunogen conjugate per ml saline homogenized with 1 ml of Freund's complete adjuvant. Rabbits received a total of 0.4 ml divided over 2 intramuscular sites. Animals were boosted 30 days later receiving 0.5 mg immunogen per ml saline homogenized with 1 ml Freund's Incomplete adjuvant. […]
Antibody titer, antibody sensitivity, antibody specificity and the presence of and concentration of reactivation product in body fluids were determined by a radioimmunoassay (RIA). […]
Non-antibody-bound radioactive isotope was removed from the reaction mixture by it's absorption onto dextran-coated activated charcoal. […] The supernatant fluid was decanted into 9 ml of AQUASOL-2 scintillation fluid and radioactivity counted in a beta-counter. […] Percent specific binding was determined by subtracting the value for non-specific binding from the value of total antiserum binding and then dividing by the total radioactivity added.
Sensitivity of the antisera R674 (2nd bleed) was determined in the above RIA. […]

| SMILES | effect in RIA (displacement) |
| --- | --- |
| N=C(N)NCCC[C@H](N)C(=O)O [arginine] | without affect |
| NC(N)=O [Urea, urea] | without affect |

From US5229267A, “Assay for evaluating inhibition of PMN elastase by N-substituted azetidinones” (Merck & Co., Inc., priority 1991, dated 1993)
